Test results from patent US20180148470A1, “CHOLIC ACID DERIVATIVE, AND PREPARATION METHOD AND MEDICAL USE THEREOF” (Jiangsu Hansoh Pharmaceutical Group Co., Ltd., priority 2015, published 2018).

How the values were obtained:
FXR receptor = molecular target: T1, FXR receptor (Homo sapiens, UniProt Q96RI1); assay: FXR receptor binding activity assay (TR-FRET; GST-FXR-LBD / SRC1 fragment); assay type: biochemical; details: FXR-LBD binding to SRC1 fragment, agonist rate
T1 construct: Prepared 2× GST-labeled FXR-LBD/anti-GST Eu mixture to the required volume, the concentration of GST-FXR-LBD was 6 nM; purchased Life Technology Invitrogen PV4835
T1 sequence (Q96RI1 262-486 limits assumed): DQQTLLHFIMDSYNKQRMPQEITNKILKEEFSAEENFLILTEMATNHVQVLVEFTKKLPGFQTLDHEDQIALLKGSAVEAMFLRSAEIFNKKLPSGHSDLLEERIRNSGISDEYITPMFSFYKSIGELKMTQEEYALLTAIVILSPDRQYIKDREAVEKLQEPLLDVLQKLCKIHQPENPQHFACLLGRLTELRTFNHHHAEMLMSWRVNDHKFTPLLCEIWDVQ
T1 sequence (Q15788 676-700 partner limits assumed): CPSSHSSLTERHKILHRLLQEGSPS
Description: FXR Receptor Binding Activity Assay (Time-Resolved Fluorescence Detection Method TR-FRET Method)
To test the effect of the present compounds on FXR receptor binding, we selected the commercial FXR receptor binding activity assay kit to test the effect of the compounds on FXR and its binding protein fragments (LBD structural domain binds to SRC1 fragment) (kit supplier: Life Technology Invitrogen Catalog: PV4835; cisbio Catalog: 610SAXLA and 61GSTKLA). Specific method was described in the kit instructions. The operation was as follows:
1. Prepared 2× GST-labeled FXR-LBD/anti-GST Eu mixture to the required volume, the concentration of GST-FXR-LBD was 6 nM, Eu was 50 nL/well.
2. Prepared 2× biotin-labeled SRC1/[…] (SA-APC) mixture to the required volume, the concentration of SRC1 was 1000 nM, and […] was 50 nL/well.
3. 2× GST-FXR/Eu and SRC1/SA-APC were mixed in a proportion of 1:1.
4. 20 μL of a mixture of GST-FXR/Eu and SRC1/SA-APC was added to a 384-well plate containing the compounds to be tested.
5. Centrifuged for 1 minute at 1000 rpm; incubated for 180 minutes at room temperature.
6. Time-resolved fluorescence detection: EnVision reader.
(1) the value at 665 nm divided by the value at 615 nm;
(2) calculating the agonist rate
Agonist rate=(X−Min)/(Max−Min)*100% • X represents the 665/615 value for each concentration; • Min represents the 665/615 value without adding compound; • Max represents the 665/615 value of the reference compound.

FXR = molecular target: T2, FXR (Homo sapiens, UniProt Q96RI1); assay: FXR reporter gene expression test (dual luciferase, FXR Gal4 reporter in HepG2 cells); assay type: cell-based; details: HepG2 cells transiently transfected with FXR Gal4 reporter, 18 hours
T2 sequence (Q96RI1 262-486 limits assumed): T1 sequence (Q96RI1 262-486 limits assumed)
Description: FXR Reporter Gene Expression Test
To analyze the effect of testing compounds on FXR-regulated gene expression, we used Promega's dual luciferase assay system (Promega #E1980) to detect the effect of the compounds on the FXR reporter gene in HepG2 hepatoma cell line (ATCC #HB-8065), which was transiently transfected with the FXR Gal4 reporter gene fragment. Specific experimental methods are as follows:
1. HepG2 Cell Culture and Maintenance
Cells were digested and cells with appropriate density were grown in 10 mL complete medium and then cultivated for 24 hours under 37° C., 5% CO2 humidity conditions.
2. Cell planting and transfection. Transfection reagent was Fugene HD (Promega#E231A)
(1) The transfection mixture was prepared according to the following table
(2) The mixture in the tube was vigorously mixed and incubated at room temperature for 15 minutes;
(3) The cells were digested in the culture dish and counted;
(4) The cell suspension was diluted to the desired volume of 600,000/mL (96-well plates 100 μL/well);
(5) The required volume of the transfection mixture was added to the cell suspension, followed by plating at 100 μL/well;
(6) Incubated for 24 hours under 37° C., 5% CO2 humidity conditions.
3. Treatment of the Compound
(1) 10 mM of mother liquor of the compound was prepared and then serially diluted 3 times with DMSO;
(2) 10 μL of compound was added to 90 μL of complete medium (10×);
(3) 5 μL of the solution of the compound (21×) was added to each well;
(4) Incubated for 18 hours under 37° C., 5% CO2 humidity conditions.
The firefly luciferase and the renilla luciferase signal (Promega #E1980) were detected by Promega's dual-luciferase assay system.
(2) Calculating the agonist rate
Agonist rate=(X−Min)/(Max−Min)*100% • X represents the F/R value of each concentration; • Min represents the F/R value without adding compound; • Max represents the F/R value of the reference compound.
(3) EC50 was calculated according to GraphPrism 5.0

[1] = Pharmacokinetic test in rats; assay type: in vivo, Sprague-Dawley (SD) rats; details: male SD rats, intragastric administration of 10 mg/kg; for AUC(0-t) / Cmax / Tmax: Sprague-Dawley, rat, po, plasma; for AUC(0-t): read-out: area under the blood concentration-time curve AUC0-t; for Cmax: read-out: peak concentration Cmax; for Tmax: read-out: peak time of blood concentration tmax
Method: Pharmacokinetic Test in Rats
The pharmacokinetic study of the present invention was performed in rats. The pharmacokinetic behavior of the positive control INT-747 and a representative compound of the present invention, such as Example 14-β, was studied in rats, and their pharmacokinetic characteristics were evaluated.
(1) Three male Sprague-Dawley (SD) rats were used, which were supplied by Sippr-BK laboratory animal Co. Ltd. Animal Production License No. SOCK (Shanghai) 2008-0016.
(2) Then, 10 mg of the sample was weighed and added with 10 mL of 0.5% CMC-Na aqueous solution, the mixture was fully shaken to make a 1 mg/ml uniform solution, and the remaining liquid samples were used for quantitative analysis.
(3) Three male SD rats were intragastrically administered at 10 mg/kg with a volume of 10 mL/kg after fasting for one night.
(4) About 0.05 mL of underjaw intravenous blood was collected before and 0.5, 1.0, 2.0, 4.0, 6.0, 8.0, 24.0, 30.0 hours after administration, and then placed in a EDTA-K2 test tube. The blood was centrifuged at 6000 rpm for 5 minutes to isolate the plasma, which was stored at −80° C. The rats were feed 4 hours after administration.
(1) Instruments and Equipment: API 4000 triple quadrupole mass spectrometer, Applied Biosystems, USA; Shimadzu LC-20AD high performance liquid chromatography system, Shimadzu, Japan.
(2) Condition of chromatography: The chromatographic column was Phenomenex gemiu 5 um C18 50×4.6 mm; mobile phase was acetonitrile: 0.1% TFA aqueous solution (gradient elution); flow rate (ml/min) was 0.8 ml/min.

Row | SMILES | EC50 (FXR receptor) [nM] | EC50 (FXR) [nM] | AUC(0-t) [1] [ng·h/mL] | Cmax [1] [ng/mL] | Tmax [1] [min] | exposed quantity in the tested animals compared with positive control INT-747 [1]
1 | CC[C@H]1[C@@H](O)C2C3CCC([C@H](C)CC4SC(=O)NC4=O)[C@@]3(C)CCC2[C@@]2(C)CC[C@@H](O)C[C@@H]12 (single isomer, unassigned) [Example 14-β] | 4 | 57 | 41800 | 7580 | 60 | significantly better than that of the positive control INT-747
2 | CC[C@H]1[C@@H](O)[C@@H]2[C@H](CC[C@]3(C)[C@@H]([C@H](C)CCC(=O)O)CC[C@@H]23)[C@@]2(C)CC[C@@H](O)C[C@@H]12 [INT-747, reference compound] | – | – | 9030 | 4410 | 30 | –
